From patent US9045486B2, “Pyrimidone derivatives and their use in the treatment, amelioration or prevention of a viral disease” (priority 2013, dated 2015)

Target: T1, influenza A virus (IAV) PA-Nter fragment (amino acids 1-209) (Influenza A virus, UniProt P31343)
T1 construct: PA-Nter fragment (amino acids 1-209); made in house
Assay: FRET endonuclease activity assay
Format: biochemical
Conditions: 0.5 μM PA-Nter, 1.6 μM dual-labelled RNA substrate; IC50 from initial reaction velocities (v0)

SMILES | IC50 [nM]
CC(C)N1CCn2c(Cc3ccccc3-c3ccccc3Cl)nc(=O)c(O)c2C1=O | 657
O=C1NCCn2c(Cc3ccccc3-c3ccccc3)nc(=O)c(O)c21 | 60
CC(C)N1CCn2c(Cc3ccccc3-c3ccccc3)nc(=O)c(O)c2C1=O | 196
CN1CCn2c(Cc3ccccc3-c3ccccc3Cl)nc(=O)c(O)c2C1=O | 175
CN1CCn2c(CC3(c4ccccc4)CCCC3)nc(=O)c(O)c2C1=O | 116
CC(C)N1CCn2c(CC3(c4ccccc4)CCCC3)nc(=O)c(O)c2C1=O | 93
CN1CCn2c(CC3(c4ccc(Cl)cc4)CCCC3)nc(=O)c(O)c2C1=O | 160
CC(C)N1CCn2c(CC3(c4ccc(Cl)cc4)CCCC3)nc(=O)c(O)c2C1=O | 252
CC(N1CCn2c(CC3(c4ccc(Cl)cc4)CCCC3)nc(=O)c(O)c2C1=O)C(F)(F)F (stereo not shown) | 296
O=C1c2c(O)c(=O)nc(CC3(c4ccc(Cl)cc4)CCCC3)n2CCN1c1ccccc1 | 1180
CC(C)N1CCn2c(Cc3cccc4ccccc34)nc(=O)c(O)c2C1=O | 1810
CC(C)N1CCn2c(Cc3cccc(Cl)c3Cl)nc(=O)c(O)c2C1=O | 350
CC(C)N1CCn2c(Cc3ccccc3-c3cccc(Cl)c3Cl)nc(=O)c(O)c2C1=O | 370
CC(C)N1CCn2c(Cc3ccccc3-c3ccc(Cl)c(Cl)c3)nc(=O)c(O)c2C1=O | 2510
CC(C)N1CCn2c(Cc3ccccc3-c3ccc(Cl)cc3)nc(=O)c(O)c2C1=O | 1370
COc1ccc(-c2ccccc2)c(Cc2nc(=O)c(O)c3n2CCN(C(C)C)C3=O)c1 | 430
CC(c1ccccc1-c1ccccc1)c1nc(=O)c(O)c2n1CCN(C(C)C)C2=O (stereo not shown) | 1700
CC(C)N1CCn2c(Cc3cscc3-c3ccccc3)nc(=O)c(O)c2C1=O | 1390
CC(c1ccccc1)N1CCn2c(CC3(c4ccc(Cl)cc4)CCCC3)nc(=O)c(O)c2C1=O (stereo not shown) | 1130
CC(C)N1CCn2c(CC(C)(C)c3ccccc3)nc(=O)c(O)c2C1=O | 250
CC(C)N1CCn2c(CC3(c4ccccc4)CCCCC3)nc(=O)c(O)c2C1=O | 120
CC(C)N1CCn2c(CC3(c4ccc(Cl)c(Cl)c4)CCCC3)nc(=O)c(O)c2C1=O | 610
CC(C)N1CCn2c(CC3(c4cccc(Cl)c4)CCCC3)nc(=O)c(O)c2C1=O | 320

SMILES | IC50 [nM]
CC(C)N1CCn2c(CC3(c4ccc5ccccc5c4)CCCC3)nc(=O)c(O)c2C1=O | 110
CC(C)N1CCn2c(Cc3ccccc3-c3cccc(F)c3F)nc(=O)c(O)c2C1=O | 200
CC(C)N1CCn2c([C@@H]3CCC[C@@H]3c3ccccc3)nc(=O)c(O)c2C1=O | 500
CC(C)N1CCn2c([C@H]3CCC[C@H]3c3ccccc3)nc(=O)c(O)c2C1=O | 230
CC(C)N1CCn2c(CC(C)(C)n3ccc4ccccc43)nc(=O)c(O)c2C1=O | 240
CC(C)N1CCn2c(Cc3cc(O)ccc3-c3ccccc3)nc(=O)c(O)c2C1=O | 146
COc1ccc(-c2ccccc2Cc2nc(=O)c(O)c3n2CCN(C(C)C)C3=O)cc1 | 122
CC(C)N1CCn2c(Cc3ccccc3C3CCCCC3)nc(=O)c(O)c2C1=O | 114
CC(C)N1CCn2c(Cc3ccccc3-c3ccncc3)nc(=O)c(O)c2C1=O | 94
CC(C)N1CCn2c(Cc3ccccc3-c3cccc(F)c3)nc(=O)c(O)c2C1=O | 380
CC(C)N1CCn2c(Cc3ncccc3-c3ccccc3)nc(=O)c(O)c2C1=O | 380
CC(C)N1CCn2c(Cc3ccccc3-c3ccc(F)c(F)c3)nc(=O)c(O)c2C1=O | 1060
CC(C)c1ccc(-c2ccccc2Cc2nc(=O)c(O)c3n2CCN(C(C)C)C3=O)cc1 | 700
CC(C)N1CCn2c(Cc3ccccc3-c3ccc(F)cc3)nc(=O)c(O)c2C1=O | 1550
CC(C)N1CCn2c(Cc3ccccc3-c3ccc(C#N)cc3)nc(=O)c(O)c2C1=O | 300
CC(C)N1CCn2c(Cc3ccccc3-c3ccc(C(F)(F)F)c(F)c3)nc(=O)c(O)c2C1=O | 380
CC(C)N1CCn2c(Cc3ccccc3-c3ccc(C(F)(F)F)cc3)nc(=O)c(O)c2C1=O | 320
CC(C)N1CCn2c(Cc3ccccc3-c3ccc(OC(F)(F)F)cc3)nc(=O)c(O)c2C1=O | 550
CC(C)N1CCn2c(Cc3ccccc3-c3ccc4c(c3)OCO4)nc(=O)c(O)c2C1=O | 229
O=C1c2c(O)c(=O)nc(CC3(c4ccccc4)CCCC3)n2CCN1C1CCCC1 | 521
CSc1ccc(-c2ccccc2Cc2nc(=O)c(O)c3n2CCN(C(C)C)C3=O)cc1 | 116
O=C1c2c(O)c(=O)nc(CC3(c4ccccc4)CCCC3)n2CCN1C1CCC1 | 102
CC(C)(C)CN1CCn2c(CC3(c4ccccc4)CCCC3)nc(=O)c(O)c2C1=O | 143

SMILES | IC50 [nM]
O=C1c2c(O)c(=O)nc(CC3(c4ccccc4)CCCC3)n2CCN1CC1CC1 | 138
O=C1c2c(O)c(=O)nc(CC3(c4ccccc4)CCCC3)n2CCN1C1COC1 | 134
O=C1c2c(O)c(=O)nc(CC3(c4ccccc4)CCCC3)n2CCN1C1CC1 | 98
O=C1c2c(O)c(=O)nc(CC3(c4ccccc4)CCCC3)n2CCN1C1CCOCC1 | 43
O=C1c2c(OCc3ccccc3)c(=O)nc(CC3(c4ccccc4)CCCC3)n2CCN1C1CCOCC1 | > 25000
CC(C)N1CCn2c(CC3(c4ccc(C#N)cc4)CCCC3)nc(=O)c(O)c2C1=O | 41
CC(C)N1CCn2c(CC3(c4cc(Cl)ccc4Cl)CCCC3)nc(=O)c(O)c2C1=O | 295
CC(C)N1CCn2c(CC3(c4ccc(C(F)(F)F)cc4)CCCC3)nc(=O)c(O)c2C1=O | 262
CC(C)N1CCn2c(CC3(c4ccccc4)CCC(F)(F)CC3)nc(=O)c(O)c2C1=O | 84
O=C1c2c(O)c(=O)nc(CC3(c4ccccc4)CCCC3)n2CCN1Cc1ccc(F)cc1 | 422
O=C1c2c(O)c(=O)nc(CC3(c4ccc(Cl)cc4)CCCC3)n2CCN1CC1CC1 | 205
O=C1c2c(OCc3ccccc3)c(=O)nc(CC3(c4ccc(Cl)cc4)CCCC3)n2CCN1CC1CC1 | > 25000
O=C1c2c(O)c(=O)nc(CC3(c4ccc(Cl)cc4)CCCC3)n2CCN1C1CC1 | 730
O=C1c2c(O)c(=O)nc(CC3(c4cccc5ccccc45)CCCC3)n2CCN1CC1CC1 | 140
CN1CCn2c(CC3(c4cccc5ccccc45)CCCC3)nc(=O)c(O)c2C1=O | 110
O=C1c2c(O)c(=O)nc(CC3(c4ccc(Cl)cc4)CCCC3)n2CCN1C1CCOCC1 | 60
O=C1c2c(O)c(=O)nc(CC3(c4cccc5ccccc45)CCCC3)n2CCN1C1CCOCC1 | 110
O=C1c2c(O)c(=O)nc(CC3(c4cccc5ccccc45)CCCC3)n2CCN1C1CC1 | 104
O=C1c2c(O)c(=O)nc(CC3(c4cccc5ccccc45)CCCC3)n2CCN1C1COC1 | > 25000
O=C1c2c(O)c(=O)nc(CC3(c4cccc5ccccc45)CCCC3)n2CCN1Cc1ccccc1 | 670
CN1CCn2c(CC3(n4ccc5cccnc54)CCCC3)nc(=O)c(O)c2C1=O | 80
CC(C)N1CCn2c(CC3(n4ccc5cccnc54)CCCC3)nc(=O)c(O)c2C1=O | 20
O=C1c2c(O)c(=O)nc(CC3(n4ccc5cccnc54)CCCC3)n2CCN1CC1CC1 | 141

SMILES | IC50 [nM]
O=C1c2c(OCc3ccccc3)c(=O)nc(CC3(n4ccc5cccnc54)CCCC3)n2CCN1CC1CC1 | > 25000
O=C1c2c(O)c(=O)nc(CC3(n4ccc5cccnc54)CCCC3)n2CCN1C1COC1 | 108
O=C1c2c(O)c(=O)nc(CC3(n4ccc5cccnc54)CCCC3)n2CCN1C1CC1 | 92
O=C1c2c(O)c(=O)nc(CC3(n4ccc5cccnc54)CCCC3)n2CCN1C1CCC1 | 173
CC(C)N1CCn2c(Cc3ccc(Cl)cc3-c3ccc(F)cc3)nc(=O)c(O)c2C1=O | 436
CC(C)N1CCn2c(Cc3ccc(Cl)cc3-c3ccc(Cl)cc3)nc(=O)c(O)c2C1=O | 266
CC(C)N1CCn2c(Cc3ccc(Cl)cc3-c3cccc(F)c3)nc(=O)c(O)c2C1=O | 58
CC(C)N1CCn2c(Cc3ccc(Cl)cc3-c3cccnc3)nc(=O)c(O)c2C1=O | 81
CC(C)N1CCn2c(Cc3ccc(Cl)cc3-c3ccncc3)nc(=O)c(O)c2C1=O | 110
CC(C)N1CCn2c(Cc3ccc(Cl)cc3Br)nc(=O)c(OCc3ccccc3)c2C1=O | > 25000
CC(C)N1CCn2c(CC3(c4cccc5ccccc45)CCCC3)nc(=O)c(O)c2C1=O | 270
CC(C)N1CCn2c(CC3(c4cc(C(F)(F)F)cc(C(F)(F)F)c4)CCCC3)nc(=O)c(O)c2C1=O | 318
CC(C)N1CCn2c(CC3(c4cccc(C(F)(F)F)c4)CCCC3)nc(=O)c(O)c2C1=O | 460
CC(C)N1CCn2c(-c3ccccn3)nc(=O)c(O)c2C1=O | 1890
O=C1c2c(O)c(=O)nc(CC3(c4ccc(Cl)cc4)CCCC3)n2CCN1Cc1ccccc1 | 990
O=C1NCCn2c(CC3(c4ccc(Cl)cc4)CCCC3)nc(=O)c(O)c21 | 1270
CC(C)N1CCn2c(CC3(c4ccccn4)CCCC3)nc(=O)c(O)c2C1=O | 97
CN1CCn2c(CC3(c4ccccn4)CCCC3)nc(=O)c(O)c2C1=O | 63
CC(C)N1CCn2c(Cc3c(Cl)cccc3Cl)nc(=O)c(O)c2C1=O [drawing 10] | 392
CC(C)N1CCn2c(Cc3c(Cl)cccc3Cl)nc(=O)c(O)c2C1=O [drawing 18] | 390
O=C1NCCn2c(CC3(c4cccc5ccccc45)CCCC3)nc(=O)c(O)c21 [drawing 712] | 162
O=C1NCCn2c(CC3(c4cccc5ccccc45)CCCC3)nc(=O)c(O)c21 [drawing 722] | 160
